Data taken from US20020137209A1, “Methods of dissociating nongenotropic from genotropic activity of steroid receptors” (priority 2000, published 2002).
Ends that are not written are not given here.

Columns and labels:
ERβ [1] = target: T1, ERβ (Homo sapiens, UniProt Q92731); experiment: IL-6-luc transcription in HeLa cells transfected with ERβ; type: cell-based; design: expressed in transfected cells; host or cells: HeLa; details: ERβ carrying HeLa cells, 10^−8 M E2
Description: (§1) A. HeLa cells were transiently transfected with the ERα expression vector alone or together with a vector carrying a fusion of the α-II peptide with the GAL4 DNA binding domain driven by the SV40 promoter. In addition, cells were transfected with ERE-luc or IL-6-luc for the transcription studies; or with EGFP-nuc for the apoptosis experiments. […] B. HeLa cells were transfected with ERα or ERβ alone or together with expression vectors carrying 2X293 or 2XF6 peptides. […] C. HeLa cells were transfected with a vector carrying the GRIP peptide alone or together with ERα.
(§2) DNA constructs. […] Bio. […] The sequence for peptide αII is […] (SEQ ID NO.: 1). […] (SEQ ID NO.: 3). The sequence for GRIP is […] […] […] (SEQ ID NO.: 4). […] The forward primer contained the restriction site for SalI and the ERα Kozak sequence and the reverse primer contained the BamH1 restriction site. Amplified PCR products were subcloned into the SalI/BamH1 restriction site of pCMV.
(§3) Transient transfections. HeLa cells were plated at 5×10^4/cm^2 and after 16-24 hours were transfected with a total amount of 3 μg of DNA using Lipofectamine (Life Technologies Inc). Following a 4-6 hours of incubation, the transfection mix was replaced with fresh medium containing 10% charcoal-stripped serum and treatments were initiated.

ERβ [2] = target: T1, ERβ; experiment: ERE-luc transcription in HeLa cells transfected with ERβ; type: cell-based; design: expressed in transfected cells; host or cells: HeLa; details: ERβ carrying HeLa cells, 10^−8 M E2
Description: as §1, §2, §3

ERβ [3] = target: T1, ERβ; experiment: Etoposide-induced apoptosis in HeLa cells transfected with ERβ
ERα = target: T2, ERα (Homo sapiens, UniProt P03372); experiment: Etoposide-induced apoptosis in HeLa cells transfected with ERα; details: peptide co-transfected, 10^−8 M E2
T2 sequence (P03372 1-595): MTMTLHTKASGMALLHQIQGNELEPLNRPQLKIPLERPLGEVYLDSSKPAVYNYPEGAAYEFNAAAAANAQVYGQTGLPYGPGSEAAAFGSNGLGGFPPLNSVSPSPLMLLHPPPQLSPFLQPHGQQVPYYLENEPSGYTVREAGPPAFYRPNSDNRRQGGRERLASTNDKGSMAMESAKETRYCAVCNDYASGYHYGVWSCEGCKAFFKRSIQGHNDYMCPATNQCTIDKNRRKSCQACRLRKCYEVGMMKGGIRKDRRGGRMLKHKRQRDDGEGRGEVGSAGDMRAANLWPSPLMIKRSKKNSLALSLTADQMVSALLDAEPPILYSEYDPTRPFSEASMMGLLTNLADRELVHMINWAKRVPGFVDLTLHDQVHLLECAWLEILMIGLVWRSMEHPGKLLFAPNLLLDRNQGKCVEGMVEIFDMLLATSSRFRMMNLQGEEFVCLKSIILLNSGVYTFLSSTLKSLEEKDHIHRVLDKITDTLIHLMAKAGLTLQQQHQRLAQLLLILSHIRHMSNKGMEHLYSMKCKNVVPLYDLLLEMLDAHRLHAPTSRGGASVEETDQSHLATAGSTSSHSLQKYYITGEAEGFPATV

ERK1/2 = experiment: ERK phosphorylation in MLO-Y4 cells (Western blot); type: cell-based; details: for effect of inhibitor on induction of ERK phosphorylation by E2 or DHT: inhibitor 25 min, then 5 min E2 or DHT
Description: Western blot analysis. The phosphorylation status of ERK1/2 was analyzed by immunoblotting using a mouse monoclonal antibody recognizing tyrosine phosphorylated ERK1/2, or a rabbit polyclonal antibody recognizing total ERK1/2, followed by incubation with either an anti-mouse or an anti-rabbit antibody conjugated with horseradish peroxidase (Santa Cruz Biotechnology).

[4] = test system: osteocytic cell line MLO-Y4; experiment: Apoptosis of MLO-Y4 osteocytic cells (trypan blue); type: cell-based
[5] = test system: embryonic fibroblasts derived from Src−/− mice; experiment: Apoptosis in embryonic fibroblasts from Src−/− mice; type: cell-based; details: ER- and AR-expressing, also lack yes and Fyn
Description: Cell lysates were obtained and proteins were analyzed by Western blot analysis using anti-ERK1/2 or anti-phospho-ERK1/2 (p-ERK1/2) antibodies. […] After 30 min, etoposide was added and apoptosis was assayed 6 hours later as in FIG. 1B. […] RT-PCR was performed as described in the experimental procedures. C-E. HeLa cells were transfected with Nuc-EGFP and with expression vectors encoding the full length ERα or its E domain, or the AR alone (C, left panel) or together with a dn MEK (C, right panel); a Src mutant lacking the kinase activity (Src K^−), a Src mutant lacking the SH2 domain (Src ΔSH2), or a Src mutant lacking the SH3 domain (Src ΔSH3) (D); or with ERα together with wt Shc, or the dn Shc mutants Y239F/Y240F/Y317F (Shc FFF), Y317F (Shc YYF) or Y239F/Y240F (Shc FFY) (E). Bars represent means±SD of triplicate determinations. *p<0.05 versus cells cultured without steroids, by ANOVA.
Quantification of apoptotic cells in vitro. Apoptotic cells were quantified either by trypan blue staining or by direct visualization of changes in nuclear morphology (in the case of transfected HeLa cells), as previously described (Plotkin,L. et al. (1999). J.
RT-PCR analysis of the ERs and AR in embryonic fibroblasts. […]

[6] = test system: HeLa cells transfected with the vector without receptor (empty vector, ev); experiment: Etoposide-induced apoptosis in HeLa cells transfected with empty vector; details: 10^−12M to 10^−8 M
[7] = test system: calvaria-derived murine osteoblastic cells; experiment: Apoptosis of calvaria-derived osteoblastic cells (trypan blue)
AR = target: T3, AR (Homo sapiens, UniProt P10275); experiment: Etoposide-induced apoptosis in HeLa cells transfected with AR
T3 sequence (P10275 1-920): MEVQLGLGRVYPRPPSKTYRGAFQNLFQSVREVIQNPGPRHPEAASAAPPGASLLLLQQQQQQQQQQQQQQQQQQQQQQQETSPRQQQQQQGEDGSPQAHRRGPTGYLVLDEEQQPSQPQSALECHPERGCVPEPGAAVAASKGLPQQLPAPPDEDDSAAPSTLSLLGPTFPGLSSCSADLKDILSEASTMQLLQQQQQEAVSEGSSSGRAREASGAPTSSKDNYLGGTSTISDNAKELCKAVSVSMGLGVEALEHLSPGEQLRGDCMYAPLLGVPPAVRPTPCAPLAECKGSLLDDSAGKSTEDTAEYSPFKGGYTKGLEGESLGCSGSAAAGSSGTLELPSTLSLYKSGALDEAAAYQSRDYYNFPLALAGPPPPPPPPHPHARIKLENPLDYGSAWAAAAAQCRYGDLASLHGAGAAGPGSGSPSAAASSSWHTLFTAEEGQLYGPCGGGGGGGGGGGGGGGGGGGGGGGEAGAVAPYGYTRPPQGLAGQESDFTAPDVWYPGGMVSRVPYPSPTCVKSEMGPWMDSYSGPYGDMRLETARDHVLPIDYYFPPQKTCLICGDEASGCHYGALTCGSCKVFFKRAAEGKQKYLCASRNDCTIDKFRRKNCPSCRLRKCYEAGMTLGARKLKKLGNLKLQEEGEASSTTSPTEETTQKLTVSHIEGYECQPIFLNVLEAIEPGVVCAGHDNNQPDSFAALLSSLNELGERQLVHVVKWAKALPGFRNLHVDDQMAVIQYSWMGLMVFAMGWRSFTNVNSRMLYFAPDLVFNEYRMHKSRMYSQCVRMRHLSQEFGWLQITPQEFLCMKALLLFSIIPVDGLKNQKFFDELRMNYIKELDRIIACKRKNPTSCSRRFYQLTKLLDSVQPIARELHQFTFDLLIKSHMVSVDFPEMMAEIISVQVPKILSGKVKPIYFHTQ

T1 sequence (Q92731 whole entry, species assumed, the tested form may be a part): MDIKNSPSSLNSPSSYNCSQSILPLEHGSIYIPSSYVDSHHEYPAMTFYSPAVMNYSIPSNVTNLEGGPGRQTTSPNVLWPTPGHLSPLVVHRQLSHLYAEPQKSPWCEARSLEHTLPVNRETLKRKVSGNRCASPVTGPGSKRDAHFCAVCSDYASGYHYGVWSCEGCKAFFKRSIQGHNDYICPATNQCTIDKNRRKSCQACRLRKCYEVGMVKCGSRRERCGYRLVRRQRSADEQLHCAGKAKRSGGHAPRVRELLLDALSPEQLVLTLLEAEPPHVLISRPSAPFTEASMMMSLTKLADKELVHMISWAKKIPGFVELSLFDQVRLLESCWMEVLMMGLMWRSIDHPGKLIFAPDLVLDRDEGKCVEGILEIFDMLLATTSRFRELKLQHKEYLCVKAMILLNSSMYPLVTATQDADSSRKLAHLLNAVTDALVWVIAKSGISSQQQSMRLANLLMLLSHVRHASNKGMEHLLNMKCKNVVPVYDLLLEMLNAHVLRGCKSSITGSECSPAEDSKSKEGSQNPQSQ

Question: “293: ERβ-specific peptide SSIKDFPNLISLLSR (SEQ ID NO.: 2); two copies expressed fused to GAL4 DNA binding domain (also: two copies fused to GAL4 DNA binding domain) [compound 293]” was tested. Which “effect of peptide on E2 effect on IL-6-Luc transcription” value (ERβ [1]) did it give?
Answer: blocked

Question: And the “effect of peptide on E2-induced ERE-Luc transcription” value (ERβ [2])?
Answer: blocked

Question: And the “effect of peptide on the anti-apoptotic activity of ERβ (E2)” value (ERβ [3]; peptide co-transfected, 10^−8 M E2)?
Answer: did block

Question: And the “effect of peptide on the anti-apoptotic activity of ERα (E2)” value (ERα)?
Answer: did not have an effect

Question: What does the source list for C[C@]12CCC(=O)C[C@@H]1CC[C@@H]1[C@@H]2CC[C@]2(C)[C@@H](O)CC[C@@H]12 [DHT, 5β-dihydrotestosterone]?
Answer: time of maximal effect on phosphorylation of ERKs (ERK1/2; MLO-Y4 cells): 5 min; prevention of apoptosis induced by etoposide, dexamethasone or TNFα ([4]; 10^−8 M steroid): prevented apoptosis; dose-dependent inhibition of etoposide-induced apoptosis compared with calvaria cells ([4]; not shown): identical results; prevention of etoposide-induced apoptosis (ERβ [3]; HeLa transfected with ERβ): prevented apoptosis in a dose-dependent manner; anti-apoptotic effect in Src−/− fibroblasts (unlike Src+/+ wild type controls) [5]: unresponsive; effect on etoposide-induced apoptosis [6]: Neither E2 nor DHT (10^−12M to 10^−8 M) had an effect; prevention of apoptosis induced by etoposide, dexamethasone or TNFα ([7]; 10^−8 M steroid): prevented apoptosis

Question: With C[C@]12CC[C@@H]3c4ccc(O)cc4C[C@@H](CCCCCCCCC[S+]([O-])CCCC(F)(F)C(F)(F)F)[C@H]3[C@@H]1CC[C@@H]2O (some centres unmarked) [ICI 182,780] as the compound, how does the “effect of antagonist/inhibitor on the anti-apoptotic effect of E2 or DHT” value (AR) read?
Answer: abrogated

Question: And the “effect of antagonist on the anti-apoptotic effect of DHT” value ([7]; antagonist pre-treatment 30 min, 10^−8 M DHT, etoposide)?
Answer: blocked

Question: And the “effect of antagonist on the anti-apoptotic effect of E2” value ([7]; antagonist pre-treatment 30 min, 10^−8 M E2, etoposide)?
Answer: blocked

Question: For N#CC(=C(/N)Sc1ccccc1N)/C(C#N)=C(/N)Sc1ccccc1N [UO 126], which “effect of inhibitor on induction of ERK phosphorylation by E2 or DHT” value (ERK1/2) is on record?
Answer: blocked

Question: Cc1ccc(-c2nn(C(C)(C)C)c3ncnc(N)c23)cc1 [PP1] was tested. Which “effect of inhibitor on induction of ERK phosphorylation by E2 or DHT” value (ERK1/2) did it give?
Answer: blocked

Question: And the “effect of inhibitor on the anti-apoptotic effect of E2 and DHT” value ([4]; inhibitor 30 min prior to E2 or DHT, etoposide 6 hours)?
Answer: completely abrogated
